From patent US10143201B2, “Fungicidal compositions” (Syngenta Crop Protection LLC, priority 2007, dated 2018) come the findings set out here.

Holding throughout (assay type): cell-based
The test system of assay [1] is Pseudocercosporella herpotrichoides (syn. Tapesia yallundae). Kind of assay: Fungicidal action against Pseudocercosporella herpotrichoides (eye spot of cereals), microtiter growth inhibition. Here is the method:
Example B5: Funicidal Action Against Pseudocercosporella herpotrichoides (Syn. Tapesia yallundae), Eye Spot of Cereals
(§1) Conidia of the fungus from cryogenic storage are directly mixed into nutrient broth (PDB potato dextrose broth). After placing a (DMSO) solution of the test compounds into a microtiter plate (96-well format) the nutrient broth containing the fungal spores is added. The test plates are incubated at 24° C. and the inhibition of growth is evaluated after 4 days. The expected fungicidal action is calculated according to the Colby method.

In assay [2] the test system is Pyrenophora teres. Kind of assay: Fungicidal action against Pyrenophora teres (net blotch), microtiter growth inhibition. The following applies: for inhibition at 0.125 ppm / inhibition at 0.5 ppm / inhibition at 1 ppm / inhibition at 0.0625 ppm: read-out: % activity; for inhibition at 0.5 ppm: 0.5000 ppm; for % activity: alone; for inhibition at 0.25 ppm: 0.2500 ppm. Here is the method: Example B6: Fungicidal Action Against Pyrenophora teres (Net Blotch)
as §1

The test system of assay [3] is Botrytis cinerea. As to the kind of experiment: Fungicidal action against Botrytis cinerea (gray mould), microtiter growth inhibition. Here is the method:
Example B2: Fungicidal Action Against Botrytis cinerea (Gray Mould)
as §1

In assay [4] the test system is Septoria tritici. As to the kind of experiment: Fungicidal action against Septoria tritici (leaf blotch), microtiter growth inhibition. The protocol:
Example B3: Fungicidal Action Against Septoria tritici (Leaf Blotch)
as §1

Assay [5] deals with Alternaria solani. Kind of assay: Fungicidal action against Alternaria solani (early blight tomato/potato), microtiter growth inhibition. The protocol:
Example B4: Fungicidal Action Against Alternaria solani (Early Blight Tomato/Potato)
Conidia of the fungus from cryogenic storage are directly mixed into nutrient broth (PDB potato dextrose broth). After placing a (DMSO) solution of the test compounds into a microtiter plate (96-well format) the nutrient broth containing the fungal spores is added. The test plates are incubated at 24° C. and the inhibition of growth is evaluated after 3 days. The expected fungicidal action is calculated according to the Colby method.

Assay [6] relates to Gaeumannomyces graminis. Kind of assay: Fungicidal action against Gaeumannomyces graminis (take-all of cereals), microtiter growth inhibition. The following applies: Gaeumannomyces graminis, compound alone; for inhibition at 0.0039 ppm / inhibition at 0.0313 ppm / inhibition at 0.0625 ppm: read-out: % activity. The protocol: Example B7: Fungicidal Action Against Gaeumannomyces graminis (Take-all of Cereals)
Mycelial fragments of the fungus from cryogenic storage are directly mixed into nutrient broth (PDB potato dextrose broth). After placing a (DMSO) solution of the test compounds into a microtiter plate (96-well format) the nutrient broth containing the fungal spores is added. The test plates are incubated at 24 C and the inhibition of growth is evaluated after 4 days.

Where [7] appears, read: Oculimacula yallundae, 0.0156 ppm, alone, read-out: % activity.
Where [8] appears, read: Oculimacula yallundae, 0.1250 ppm, alone.
The mark [9] stands for this setting: Oculimacula yallundae, 0.2500 ppm, alone, read-out: % activity.
[10] abbreviates: Pyrenophora teres, compound alone, 0.1250 ppm.
[11] abbreviates: Pyrenophora teres, compound alone.
The mark [12] stands for this setting: Zymoseptoria tritici, 0.0625 ppm, alone, read-out: % activity.
Where [13] appears, read: Zymoseptoria tritici, 0.1250 ppm, alone, read-out: % activity.
Where [14] appears, read: Oculimacula yallundae, 0.0313 ppm, alone.
The mark [15] stands for this setting: Alternaria solani, 0.1250 ppm, alone.
The mark [16] stands for this setting: Alternaria solani, 0.2500 ppm, alone, read-out: % activity.
The mark [17] stands for this setting: Alternaria solani, 0.5000 ppm, alone, read-out: % activity.
Setting [18] is: Pyrenophora teres, compound alone, 0.0625 ppm.
[19] abbreviates: Botrytis cinerea, read-out: % activity.
Where [20] appears, read: Zymoseptoria tritici, read-out: % activity.
[21] abbreviates: Oculimacula yallundae, read-out: % activity.

Like-named read-outs stand apart in the source and are kept apart here.

Regarding `Fc1ccc([C@]2(Cn3cncn3)O[C@H]2c2ccccc2Cl)cc1` (racemic) [Epoxiconazole, epoxiconazole], the inhibition at 0.0156 ppm in assay [1] (setting [7]) worked out at 0%. Moreover, the inhibition at 0.125 ppm in assay [1] (setting [8]) came out at 70%. Further, the inhibition at 0.25 ppm in assay [1] (setting [9]) was 90%. Further, the inhibition at 0.125 ppm in assay [2] (setting [10]) came out at 20%. Besides, in assay [2] (setting [11]), the inhibition at 0.5 ppm was 50% and the inhibition at 1 ppm amounted to 70%.
Consider `CO/C=C(/C(=O)OC)c1ccccc1Oc1cc(Oc2ccccc2C#N)ncn1` [Azoxystrobin, azoxystrobin], for which the “% activity” value in assay [3] (0.1250 ppm, alone) was 0%; in assay [3] (0.2500 ppm, alone) it was 0%; in assay [3] (0.5000 ppm, alone), 0%; in assay [3] (1.0000 ppm, alone), 0%; in assay [3] (2.0000 ppm, alone), 0%; in assay [4] (0.0625 ppm, alone), 70%. Also, the “% activity” value stood at 20% in assay [5] (0.0156 ppm, alone); 20% in assay [5] (0.0313 ppm, alone); 20% in assay [5] (0.0625 ppm, alone); 50% in assay [5] (0.2500 ppm, alone); 50% in assay [5] (0.5000 ppm, alone); 20% in assay [2] (0.0313 ppm). The “% activity” value was 50% in assay [2] (0.0625 ppm) and 70% in assay [2] (0.1250 ppm).
For `N#Cc1c(Cl)c(Cl)c(Cl)c(C#N)c1Cl` [Chlorothalonil, chlorothalonil], the inhibition at 0.0625 ppm in assay [4] (setting [12]) is 0%. For the same compound, in assay [4] (setting [13]), the inhibition at 0.125 ppm was determined as 0%. The inhibition at 0.0156 ppm in assay [1] (setting [7]) was 0%. This compound also gave an inhibition at 0.0313 ppm in assay [1] (setting [14]) of 50%. Besides, the inhibition at 0.125 ppm in assay [1] (setting [8]) amounted to 90%. Also, in assay [2] (setting [11]), the inhibition at 0.25 ppm is 0% and the inhibition at 0.5 ppm was 20%.
In assay [5] (setting [15]), `CC(C1CC1)C(O)(Cn1cncn1)c1ccc(Cl)cc1` (stereo not shown) [Cyproconazole, cyproconazole] had an inhibition at 0.125 ppm of 0%. Also, the inhibition at 0.25 ppm in assay [5] (setting [16]) stood at 0%. Moreover, in assay [5] (setting [17]), the inhibition at 0.5 ppm was 20%. The inhibition at 0.25 ppm in assay [1] (setting [9]) worked out at 70%. For the same compound, in assay [6], the inhibition at 0.0039 ppm was determined as 0%, the inhibition at 0.0313 ppm stood at 0% and the inhibition at 0.0625 ppm is 20%.
For `Cc1cc(C2CC2)nc(Nc2ccccc2)n1` [Cyprodinil, cyprodinil], the values for the inhibition at 0.125 ppm in assay [4] (setting [13]) and in assay [2] (setting [10]) were 0% and 50%, respectively. Moreover, the inhibition at 0.25 ppm in assay [4] (Zymoseptoria tritici, 0.2500 ppm, alone, read-out: % activity) worked out at 0%; in assay [5] (setting [16]), 50%; in assay [2] (setting [11]) it was 50%. In assay [4] (Zymoseptoria tritici, 0.5000 ppm, alone, read-out: % activity), the inhibition at 0.5 ppm is 0%. Further, in assay [4] (Zymoseptoria tritici, 1.0000 ppm, alone), the inhibition at 1 ppm is 0%. The inhibition at 2 ppm in assay [4] (Zymoseptoria tritici, 2.0000 ppm, alone) worked out at 0%. Besides, the inhibition at 0.0156 ppm in assay [1] (setting [7]) worked out at 20%. Also, the inhibition at 0.0313 ppm in assay [1] (setting [14]) stood at 70%; in assay [2] (Pyrenophora teres, compound alone, 0.0313 ppm) it was 20%. Besides, the inhibition at 0.0625 ppm in assay [2] (setting [18]) worked out at 20%.
In the case of `CC1COC(Cn2cncn2)(c2ccc(Oc3ccc(Cl)cc3)cc2Cl)O1` (stereo not shown) [Difenoconazole, difenoconazole], in assay [4] (Zymoseptoria tritici, 0.0313 ppm, alone), the inhibition at 0.0313 ppm is 50%. For the same compound, the inhibition at 0.0625 ppm in assay [4] (setting [12]) was 90%. This compound had an inhibition at 0.125 ppm in assay [1] (setting [8]) of 50%. The inhibition at 0.0625 ppm in assay [2] (setting [18]) was determined as 20%. The inhibition at 0.125 ppm in assay [2] (setting [10]) was determined as 50%. In assay [2] (setting [11]), the inhibition at 0.25 ppm worked out at 50%, the inhibition at 0.5 ppm was determined as 70% and the inhibition at 1 ppm came to 70%. Also, in assay [6], the inhibition at 0.0039 ppm worked out at 0%, the inhibition at 0.0313 ppm came to 0% and the inhibition at 0.0625 ppm is 0%. Besides, in assay [6] (0.0156 ppm), the inhibition at 0.0156 ppm was determined as 0%.
Take `CC(Cc1ccc(C(C)(C)C)cc1)CN1CCCCC1` (stereo not shown) [Fenpropidin, fenpropidin]: the inhibition at 0.5 ppm stood at 0% in assay [3] (Botrytis cinerea, 0.5000 ppm, alone); 0% in assay [5] (setting [17]); 0% in assay [2] (setting [11]). For the same compound, the inhibition at 1 ppm came to 0% in assay [3] (Botrytis cinerea, 1.0000 ppm, alone) and 0% in assay [5] (Alternaria solani, 1.0000 ppm, alone). The inhibition at 2 ppm in assay [3] (Botrytis cinerea, 2.0000 ppm, alone) is 0%; in assay [2] (Pyrenophora teres, compound alone, 2.0000 ppm), 0%. Besides, the inhibition at 0.125 ppm in assay [5] (setting [15]), in assay [1] (setting [8]) and in assay [2] (setting [10]) was 0% in each case. In addition, the inhibition at 0.25 ppm in assay [5] (setting [16]), in assay [1] (setting [9]) and in assay [2] (setting [11]) was 0% each time. Moreover, the inhibition at 0.0156 ppm in assay [1] (setting [7]) stood at 0%. In assay [1] (setting [14]), this compound registered an inhibition at 0.0313 ppm of 0%. Further, the inhibition at 0.0625 ppm in assay [1] (Oculimacula yallundae, 0.0625 ppm, alone) was determined as 0%; in assay [2] (setting [18]), 0%.
Regarding `N#Cc1c[nH]cc1-c1cccc2c1OC(F)(F)O2` [Fludioxonil, fludioxonil], the inhibition at 0.0313 ppm was determined as 0% in assay [3] (setting [19]) and 0% in assay [5] (Alternaria solani, read-out: % activity, 0.0313 ppm, alone). For the same compound, the inhibition at 0.0625 ppm in assay [3] (setting [19]) amounted to 20%; in assay [4] (setting [20]), 0%; in assay [5] (Alternaria solani, read-out: % activity, 0.0625 ppm, alone), 20%; in assay [2] (Pyrenophora teres), 20%. Besides, the inhibition at 0.125 ppm in assay [3] (setting [19]) was 90%; in assay [4] (setting [20]), 0%; in assay [2] (Pyrenophora teres) it was 70%. Also, the inhibition at 0.0078 ppm in assay [5] (Alternaria solani, read-out: % activity, 0.0078 ppm, alone) is 0%; in assay [1] (setting [21]), 0%. Also, the inhibition at 0.0156 ppm in assay [5] (Alternaria solani, read-out: % activity, 0.0156 ppm, alone) stood at 0%; in assay [1] (setting [21]), 0%. The inhibition at 0.25 ppm turned out to be 50% in assay [5] (Alternaria solani, read-out: % activity, 0.2500 ppm, alone) and 20% in assay [1] (setting [21]). For the same compound, the inhibition at 0.5 ppm in assay [5] (Alternaria solani, read-out: % activity, 0.5000 ppm, alone) was determined as 70%; in assay [1] (setting [21]), 20%. In assay [1] (setting [21]), the inhibition at 1 ppm was 20%. In assay [1] (setting [21]), the inhibition at 2 ppm came out at 20%.
For the compound `CO/C=C(/C(=O)OC)c1ccccc1COc1cccc(C(F)(F)F)n1` [Picoxystrobin, picoxystrobin], the “% activity” value turned out to be 0% in assay [3] (0.0625 ppm, alone); 0% in assay [3] (0.1250 ppm, alone); 0% in assay [3] (0.2500 ppm, alone); 0% in assay [3] (0.5000 ppm, alone); 0% in assay [3] (1.0000 ppm, alone); 0% in assay [3] (2.0000 ppm, alone). In addition, the “% activity” value in assay [4] (0.0156 ppm, alone) is reported as 20%; in assay [4] (0.0313 ppm, alone), 70%; in assay [5] (0.0078 ppm, alone), 0%; in assay [5] (0.0156 ppm, alone), 20%; in assay [5] (0.0313 ppm, alone), 20%; in assay [5] (0.0625 ppm, alone), 50%. The “% activity” value in assay [5] (0.1250 ppm, alone) is 50%; in assay [5] (0.2500 ppm, alone) it was 50%; in assay [5] (0.5000 ppm, alone), 50%; in assay [5] (2.0000 ppm, alone), 50%; in assay [1] (0.0078 ppm, alone), 0%; in assay [1] (0.0156 ppm, alone), 20%. The “% activity” value in assay [1] (0.0313 ppm, alone) amounted to 50%; in assay [1] (0.0625 ppm, alone) it was 50%; in assay [1] (0.1250 ppm, alone), 50%; in assay [1] (0.2500 ppm, alone), 50%; in assay [1] (0.5000 ppm, alone) it was 50%; in assay [1] (1.0000 ppm, alone), 70%. Moreover, the figures for the “% activity” value in assay [2] (0.0313 ppm) and in assay [2] (0.0625 ppm) were 50% and 70%, respectively.
In assay [6] (0.1250 ppm), `CC(C)(C)C(O)(CCc1ccc(Cl)cc1)Cn1cncn1` (stereo not shown) [Tebuconazole] showed an inhibition at 0.125 ppm of 50%.
